These results are taken from ChEMBL document CHEMBL1201862, “PubChem BioAssay data set” (2004).

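Briefly, cells in 96-well plates were exposed to five compound concentrations for 48 h, and endpoints were estimated by linear interpolation. At the GI50, growth is halved.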 Activity calls are given as the source filed them. Rule as the data show it: active = GI50 up to about 1.1 µM and inactive = higher.

Among the test systems are HL-60; LOX IMVI; UACC-62; SK-MEL-5; Malme-3M; K562; CAKI-1; HOP-62; SF-268; HT-29; HCT-15; NCI-H460; SN12C; RPMI-8226; SF-295; HCT-116; EKVX; DU-145.
Experiment in all cases: NCI tumour cell line growth inhibition, 48 h

For `CCOC1=C2C(=O)OC(=O)C2C2CCCCC2=C1` (configuration not stated), the GI50 in the experiment with HL-60, with LOX IMVI, in the experiment on UACC-62, in the experiment with SK-MEL-5, in the experiment on Malme-3M and with K562 was > 100 µM (inactive) each time. For the same molecule, the GI50 was > 100 µM (inactive) in the experiment with CAKI-1; > 100 µM (inactive) with HOP-62; > 100 µM (inactive) in the experiment with SF-268; > 100 µM (inactive) with HT-29; above 100 µM in the experiment on HCT-15; > 100 µM (inactive) with NCI-H460. In addition, the GI50 in the experiment with SN12C, in the experiment on RPMI-8226, in the experiment with SF-295, in the experiment on HCT-116 and in the experiment with EKVX was > 100 µM (inactive) each time.
With `COc1cc(C2c3cc(O)c(OC)cc3C3OCC2C3CO)ccc1O` (configuration not stated), the GI50 in the experiment on HL-60, in the experiment with LOX IMVI, in the experiment on UACC-62, with SK-MEL-5, with Malme-3M and in the experiment with K562 was > 100 µM (inactive) in each case. The GI50 was > 100 µM (inactive) in the experiment on CAKI-1; > 100 µM (inactive) with HOP-62; > 100 µM (inactive) in the experiment on DU-145; > 100 µM (inactive) with SF-268; > 100 µM (inactive) with HT-29; above 100 µM in the experiment on HCT-15. The GI50 in the experiment with NCI-H460 was > 100 µM (inactive); in the experiment on RPMI-8226 it was > 100 µM (inactive); in the experiment with SF-295, > 100 µM (inactive); with HCT-116 it was 76.9 µM (inactive); in the experiment on EKVX, > 100 µM (inactive).
For `COc1cc2c(c(OC)c1OC)-c1ccc(SC)c(=O)cc1C(CC(=O)Oc1ccc(F)cc1)C2` (configuration not stated), the GI50 was 0.043 µM (active) in the experiment on HL-60; 0.236 µM (active) with LOX IMVI; 0.129 µM (active) in the experiment on UACC-62; 0.193 µM (active) in the experiment on SK-MEL-5; 0.392 µM (active) in the experiment on Malme-3M; 0.15 µM (active) with K562. Further, the GI50 in the experiment on CAKI-1 was 0.0676 µM (active); in the experiment on HOP-62, 0.341 µM (active); in the experiment on SF-268 it was 0.622 µM (active); with HT-29 it was 0.164 µM (active); in the experiment on HCT-15 it was 0.26 µM; with NCI-H460, 0.253 µM (active). Besides, the GI50 is 0.367 µM (active) in the experiment with SN12C; 0.296 µM (active) in the experiment with RPMI-8226; 0.0359 µM (active) in the experiment with SF-295; 0.0891 µM (active) in the experiment on HCT-116; 5.04 µM (inactive) in the experiment on EKVX.
For the molecule `Cc1c(O)c(OC2OC(CO)C(O)C(O)C2O)cc2c1CC[C@@H]1C2(C)C(=O)C[C@]2(C)[C@@H]([C@@](C)(O)C3CCC(C)(C)O3)[C@H](O)C[C@@]12C` (some centres not stated), the GI50 with LOX IMVI, in the experiment on UACC-62, in the experiment with SK-MEL-5, with Malme-3M, with K562 and in the experiment with CAKI-1 was > 100 µM (inactive) in each case. In addition, the GI50 is > 100 µM (inactive) in the experiment on HOP-62; > 100 µM (inactive) in the experiment on DU-145; > 100 µM (inactive) in the experiment with SF-268; > 100 µM (inactive) in the experiment with HT-29; above 100 µM in the experiment on HCT-15; > 100 µM (inactive) with NCI-H460. Besides, the GI50 in the experiment with SN12C, with SF-295, in the experiment on HCT-116 and with EKVX was > 100 µM (inactive) in each case.
Consider `COc1cc2c(cc1OC)[Se]c1cc(OC)c(OC)cc1[Se]2`, for which the GI50 in the experiment with HL-60 was 3.93 µM (inactive); with LOX IMVI, 80 µM (inactive); with UACC-62 it was > 10 µM (inactive); in the experiment with SK-MEL-5 it was > 10 µM (inactive); in the experiment with Malme-3M it was > 10 µM (inactive); with K562, 6.64 µM (inactive). Besides, the GI50 is > 10 µM (inactive) in the experiment on CAKI-1; > 10 µM (inactive) in the experiment with HOP-62; > 10 µM (inactive) in the experiment on SF-268; 6.81 µM (inactive) in the experiment on HT-29; 5.3 µM in the experiment with HCT-15; > 10 µM (inactive) with NCI-H460. Further, the GI50 is > 10 µM (inactive) in the experiment with SN12C; > 10 µM (inactive) in the experiment with RPMI-8226; 18.3 µM (inactive) in the experiment on SF-295; > 10 µM (inactive) in the experiment on HCT-116; > 10 µM (inactive) with EKVX.
As to `O=C1[C@H](Cl)[C@H]2c3cc4ccccc4nc3Oc3ccccc3N12`, the GI50 with HL-60 is 25.5 µM (inactive); in the experiment on LOX IMVI, 36.7 µM (inactive); in the experiment with UACC-62 it was 18.3 µM (inactive); in the experiment on SK-MEL-5, 30.9 µM (inactive); with Malme-3M, 49.4 µM (inactive); with K562, > 10 µM (inactive). Further, the GI50 in the experiment on CAKI-1 is 38.7 µM (inactive); in the experiment with HOP-62, 35.4 µM (inactive); in the experiment on SF-268 it was 25.8 µM (inactive); in the experiment on HT-29, 69.8 µM (inactive); in the experiment on HCT-15, 43 µM; in the experiment with NCI-H460, 53.7 µM (inactive). In addition, the GI50 is 43.4 µM (inactive) with SN12C; 22.6 µM (inactive) with RPMI-8226; 21.8 µM (inactive) in the experiment with SF-295; 17.2 µM (inactive) in the experiment on HCT-116; 81.8 µM (inactive) in the experiment on EKVX.
For `O=C(CO)C1CC2C=CC1C2` (configuration not stated), the GI50 with HL-60, in the experiment with LOX IMVI, with UACC-62, with SK-MEL-5, in the experiment with Malme-3M and in the experiment on K562 was > 100 µM (inactive) each time. Also, the GI50 with CAKI-1 is > 100 µM (inactive); with HOP-62, > 100 µM (inactive); in the experiment with SF-268, > 100 µM (inactive); in the experiment on HT-29, > 100 µM (inactive); in the experiment with HCT-15, above 100 µM; with NCI-H460, > 100 µM (inactive). In addition, the GI50 in the experiment with SN12C, in the experiment on RPMI-8226, in the experiment with SF-295, in the experiment on HCT-116 and in the experiment with EKVX was > 100 µM (inactive) in each case.
With `S=C(Nc1ccccc1)Nc1ccccc1SC(/C=C/NNC1=NN=C(c2ccccc2)C(c2ccccc2)N1)c1ccccc1` (configuration not stated), the GI50 with HL-60 is 10.4 µM (inactive); in the experiment with LOX IMVI, > 100 µM (inactive); in the experiment on UACC-62, > 100 µM (inactive); in the experiment with SK-MEL-5, 44.6 µM (inactive); in the experiment with Malme-3M it was > 100 µM (inactive); in the experiment on K562, 64.9 µM (inactive). The GI50 in the experiment on CAKI-1 was > 100 µM (inactive); in the experiment on HOP-62 it was 16.7 µM (inactive); in the experiment with SF-268, > 100 µM (inactive); in the experiment on HT-29 it was > 100 µM (inactive); in the experiment with HCT-15, above 100 µM; in the experiment on NCI-H460, > 100 µM (inactive). Besides, the GI50 with SN12C was > 100 µM (inactive); in the experiment on RPMI-8226, 59 µM (inactive); in the experiment with SF-295, 69.3 µM (inactive); with HCT-116, > 100 µM (inactive); in the experiment on EKVX it was > 100 µM (inactive).
As for `O=[N+]([O-])[C@@H]1C2C=CC(C2)[C@H]1Cl` (some centres not stated), the GI50 in the experiment with HL-60, with LOX IMVI, in the experiment on UACC-62, in the experiment with SK-MEL-5, with Malme-3M and with K562 was > 100 µM (inactive) throughout. For the same molecule, the GI50 with CAKI-1 is > 100 µM (inactive); in the experiment with HOP-62, > 100 µM (inactive); in the experiment with SF-268, > 100 µM (inactive); in the experiment with HT-29 it was > 100 µM (inactive); with HCT-15, above 100 µM; with NCI-H460, > 100 µM (inactive). For the same molecule, the GI50 in the experiment on SN12C, in the experiment with RPMI-8226, in the experiment on SF-295, in the experiment on HCT-116 and in the experiment with EKVX was > 100 µM (inactive) in each case.
